{"source": "ChEMBL document CHEMBL1201862", "about": "“PubChem BioAssay data set” (2004)", "key": {"[1]": {"molecular_target": "T1, Coagulation factor XII (Homo sapiens, UniProt P00748)", "T1 sequence (P00748 whole entry)": "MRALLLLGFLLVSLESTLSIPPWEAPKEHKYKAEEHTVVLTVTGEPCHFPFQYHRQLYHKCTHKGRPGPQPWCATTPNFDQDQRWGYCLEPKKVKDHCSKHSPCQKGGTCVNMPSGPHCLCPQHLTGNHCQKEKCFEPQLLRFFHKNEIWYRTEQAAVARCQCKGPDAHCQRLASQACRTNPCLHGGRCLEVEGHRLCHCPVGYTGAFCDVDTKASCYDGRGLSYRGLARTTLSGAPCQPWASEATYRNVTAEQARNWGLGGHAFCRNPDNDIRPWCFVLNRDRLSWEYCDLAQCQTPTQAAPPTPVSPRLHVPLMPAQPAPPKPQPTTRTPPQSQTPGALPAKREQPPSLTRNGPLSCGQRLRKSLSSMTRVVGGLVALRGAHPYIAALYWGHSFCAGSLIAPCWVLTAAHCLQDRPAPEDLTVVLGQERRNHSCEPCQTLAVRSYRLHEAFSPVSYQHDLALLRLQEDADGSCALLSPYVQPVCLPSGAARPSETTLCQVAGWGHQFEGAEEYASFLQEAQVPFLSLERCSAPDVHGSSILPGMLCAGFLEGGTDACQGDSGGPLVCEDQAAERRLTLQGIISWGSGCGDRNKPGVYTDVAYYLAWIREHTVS", "experiment": "FXIIa inhibitor potency, concentration-response, biochemical (AID 716)", "format": "functional"}, "[2]": {"experiment": "inhibitors of firefly luciferase expression or activity, dose response, H4 neuroglioma cells, luminescence (AID 1990)", "format": "functional, cell-based"}, "[3]": {"molecular_target": "G-protein coupled receptor 55 (Homo sapiens, UniProt Q9Y2T6)", "sequence (Q9Y2T6 whole entry)": "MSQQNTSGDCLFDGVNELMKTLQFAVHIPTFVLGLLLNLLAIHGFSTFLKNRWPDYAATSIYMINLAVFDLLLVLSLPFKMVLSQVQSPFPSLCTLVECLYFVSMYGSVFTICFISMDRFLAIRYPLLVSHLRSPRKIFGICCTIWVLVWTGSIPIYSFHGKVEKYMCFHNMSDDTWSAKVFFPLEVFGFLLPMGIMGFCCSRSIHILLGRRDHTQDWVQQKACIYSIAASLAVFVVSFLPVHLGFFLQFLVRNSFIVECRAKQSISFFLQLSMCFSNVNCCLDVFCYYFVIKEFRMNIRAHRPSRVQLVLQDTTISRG", "experiment": "GPR55 antagonists blocking LPI-driven arrestin recruitment, primary screen, imaging, U2OS, beta-arrestin-GFP, LPI agonist (AID 2013);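 note: antagonist potency measured as reduced agonist-driven arrestin aggregation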", "format": "functional"}, "[4]": {"experiment": "Luminescence Cell-Based Dose Response HTS to Identify Inhibitors of 5'UTR Stem-Loop Driven Prion Protein mRNA Translation in H4 Neuroglioblastoma Cells. [Related pubchem assays: 1827 (Project Summary), 1813 (Primary HTS)]", "format": "functional"}, "[5]": {"experiment": "growth suppression of PTEN-null colon cells, dose response, cell-based, HCT116 PTEN knockout (AID 1047);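 note: HCT116 colon tumor cells with PTEN knocked out; cells exposed to compound for 60 hours before readout; potency for loss of cell viability measured by luminescence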", "format": "functional"}, "[6]": {"experiment": "growth suppression of beta-catenin-knockout colon cells, dose response, cell-based, HCT116, human colon tumor (AID 1045);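 note: HCT116 colon tumor cells with beta catenin knocked out; cells exposed to compound for 60 hours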", "format": "functional"}, "[7]": {"experiment": "inhibitors of SNCA 5'UTR-driven reporter translation, confirmation, H4 neuroglioma cells, luminescence (AID 1988)", "format": "functional, cell-based"}, "[8]": {"molecular_target": "E3 ubiquitin-protein ligase Mdm2/Protein Mdm4 (Homo sapiens, UniProt O15151+Q00987)", "sequence (Q00987 whole entry)": "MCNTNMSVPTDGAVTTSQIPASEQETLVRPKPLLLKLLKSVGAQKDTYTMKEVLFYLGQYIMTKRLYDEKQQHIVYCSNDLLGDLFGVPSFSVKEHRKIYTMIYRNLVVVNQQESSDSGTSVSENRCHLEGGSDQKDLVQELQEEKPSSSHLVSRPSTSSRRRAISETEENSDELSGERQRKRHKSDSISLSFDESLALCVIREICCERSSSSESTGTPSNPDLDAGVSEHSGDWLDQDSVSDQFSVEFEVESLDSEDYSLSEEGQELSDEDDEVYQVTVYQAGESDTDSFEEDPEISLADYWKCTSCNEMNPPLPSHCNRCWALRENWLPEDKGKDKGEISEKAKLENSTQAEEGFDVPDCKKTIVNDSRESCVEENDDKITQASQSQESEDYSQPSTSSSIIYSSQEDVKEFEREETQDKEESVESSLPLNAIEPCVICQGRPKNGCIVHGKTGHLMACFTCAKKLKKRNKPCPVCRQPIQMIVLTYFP", "sequence (O15151 whole entry)": "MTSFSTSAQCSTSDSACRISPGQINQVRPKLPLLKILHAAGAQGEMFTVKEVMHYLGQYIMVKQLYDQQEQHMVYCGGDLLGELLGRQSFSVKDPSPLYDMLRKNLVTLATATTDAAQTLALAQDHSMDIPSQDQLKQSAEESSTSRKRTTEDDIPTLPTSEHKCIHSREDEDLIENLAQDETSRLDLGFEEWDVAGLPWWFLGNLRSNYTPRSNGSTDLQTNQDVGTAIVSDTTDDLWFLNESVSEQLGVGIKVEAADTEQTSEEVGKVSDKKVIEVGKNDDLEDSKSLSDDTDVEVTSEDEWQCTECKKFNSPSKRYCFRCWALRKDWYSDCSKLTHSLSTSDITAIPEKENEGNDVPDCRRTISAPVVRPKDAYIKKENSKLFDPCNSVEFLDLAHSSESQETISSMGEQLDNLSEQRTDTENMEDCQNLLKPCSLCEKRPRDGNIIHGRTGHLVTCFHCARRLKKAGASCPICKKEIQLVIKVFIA", "experiment": "Mdm2-MdmX interaction inhibitors, dose response, luminescence detection (AID 504593)", "format": "functional"}, "[9]": {"system": "H9c2", "experiment": "cells", "format": "functional, cell-based", "settings": "Rattus norvegicus, H9c2, Myocardium"}, "[10]": {"molecular_target": "Alkaline phosphatase, placental type (Homo sapiens, UniProt P05187)", "sequence (P05187 whole entry)": "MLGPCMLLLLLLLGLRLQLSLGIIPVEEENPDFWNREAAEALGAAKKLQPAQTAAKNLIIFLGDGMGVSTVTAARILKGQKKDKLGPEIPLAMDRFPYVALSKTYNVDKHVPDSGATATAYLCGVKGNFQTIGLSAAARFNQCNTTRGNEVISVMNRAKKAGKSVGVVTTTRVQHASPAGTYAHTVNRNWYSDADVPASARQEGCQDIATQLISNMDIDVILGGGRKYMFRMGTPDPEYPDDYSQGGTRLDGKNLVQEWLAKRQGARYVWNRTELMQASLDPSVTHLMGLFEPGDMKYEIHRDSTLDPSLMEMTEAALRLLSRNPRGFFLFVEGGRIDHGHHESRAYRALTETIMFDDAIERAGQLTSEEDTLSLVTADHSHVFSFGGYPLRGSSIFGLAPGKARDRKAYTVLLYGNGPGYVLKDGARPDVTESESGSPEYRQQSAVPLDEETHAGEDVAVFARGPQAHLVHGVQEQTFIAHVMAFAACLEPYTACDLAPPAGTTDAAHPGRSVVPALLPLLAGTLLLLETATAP", "experiment": "PLAP enzyme inhibitors, confirmation, biochemical, luminescence (AID 1512)", "format": "functional"}, "[11]": {"molecular_target": "T2, Alkaline phosphatase, tissue-nonspecific isozyme (Homo sapiens, UniProt P05186)", "T2 sequence (P05186 whole entry)": "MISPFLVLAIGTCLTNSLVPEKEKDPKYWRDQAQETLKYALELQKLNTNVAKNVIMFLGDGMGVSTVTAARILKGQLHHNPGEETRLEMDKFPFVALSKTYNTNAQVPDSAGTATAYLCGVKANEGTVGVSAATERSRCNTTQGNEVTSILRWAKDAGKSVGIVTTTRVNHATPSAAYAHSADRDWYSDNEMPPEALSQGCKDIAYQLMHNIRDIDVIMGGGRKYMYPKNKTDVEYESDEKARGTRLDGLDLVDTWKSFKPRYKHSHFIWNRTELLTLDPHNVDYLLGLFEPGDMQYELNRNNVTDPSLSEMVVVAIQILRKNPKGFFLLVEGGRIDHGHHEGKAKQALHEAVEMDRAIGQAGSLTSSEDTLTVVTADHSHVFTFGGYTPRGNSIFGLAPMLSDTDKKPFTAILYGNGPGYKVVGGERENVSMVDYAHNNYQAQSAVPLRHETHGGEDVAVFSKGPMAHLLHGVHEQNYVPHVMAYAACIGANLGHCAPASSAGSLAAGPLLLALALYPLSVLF", "experiment": "human TNAP enzyme inhibitors, SAR follow-up, biochemical, luminescent, dose response (AID 1056)"}}, "note": "Active and inactive are the calls of the source.", "data": [{"smiles": "CC(C)CC(c1nnnn1Cc1ccco1)N1CCN(C2CCCC2)CC1", "note": "(stereo unspecified)", "values": [{"measurement": "IC50", "setting": "[1]", "value": "> 50 µM (inactive)"}]}, {"smiles": "CCCCNS(=O)(=O)c1ccc(NC(=O)C(Sc2ccccc2)c2ccccc2)cc1", "note": "(stereo unspecified)", "values": [{"measurement": "EC50", "setting": "[2]", "value": "> 120 µM (not active)"}, {"measurement": "IC50", "setting": "[3]", "value": "1.12 µM (active)"}, {"measurement": "EC50", "setting": "[4]", "value": "> 120 µM (not active)"}, {"measurement": "EC50", "setting": "[5]", "value": "14 µM (active)"}, {"measurement": "EC50", "setting": "[6]", "value": "12.2 µM (active)"}, {"measurement": "EC50", "setting": "[7]", "value": "13.9 µM (active)"}]}, {"smiles": "CC(=O)c1ccc(-c2ccc(C(=O)Nc3nc(-c4ccccn4)cs3)o2)cc1", "values": [{"measurement": "IC50", "setting": "[8]", "value": "3.97 µM (active)"}, {"measurement": "IC50", "setting": "[9]", "value": "> 79 µM (inactive)"}]}, {"smiles": "O=C(CSc1nnc(-c2ccco2)[nH]1)c1ccc(O)c(O)c1", "values": [{"measurement": "IC50", "setting": "[10]", "value": "12.2 µM (active)"}, {"measurement": "IC50", "setting": "[11]", "value": "21.7 µM (active)"}]}]}
